Key:
Assay type in all cases: biochemical
[1] = molecular target: FGFR2 (Homo sapiens (Human), UniProt P21802); experiment: FGFR enzymatic assay (FRET peptide phosphorylation), FGFR2; conditions: FGFR2 enzyme 0.01 nM, ATP 100 μM
How it was run: (§1)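 IC50 values were obtained from variable-slope sigmoidal dose-response fitting of a FRET read-out of peptide phosphorylation. The buffer, described for FGFR3, was 50 mM HEPES pH 7.5 with MgCl2, EGTA, Tween-20 and DTT.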

[2] = molecular target: FGFR3 (Homo sapiens (Human), UniProt P22607); experiment: FGFR enzymatic assay (FRET peptide phosphorylation), FGFR3; conditions: FGFR3 enzyme (Millipore), ATP 140 μM
FGFR3, sequence (P22607 23-806): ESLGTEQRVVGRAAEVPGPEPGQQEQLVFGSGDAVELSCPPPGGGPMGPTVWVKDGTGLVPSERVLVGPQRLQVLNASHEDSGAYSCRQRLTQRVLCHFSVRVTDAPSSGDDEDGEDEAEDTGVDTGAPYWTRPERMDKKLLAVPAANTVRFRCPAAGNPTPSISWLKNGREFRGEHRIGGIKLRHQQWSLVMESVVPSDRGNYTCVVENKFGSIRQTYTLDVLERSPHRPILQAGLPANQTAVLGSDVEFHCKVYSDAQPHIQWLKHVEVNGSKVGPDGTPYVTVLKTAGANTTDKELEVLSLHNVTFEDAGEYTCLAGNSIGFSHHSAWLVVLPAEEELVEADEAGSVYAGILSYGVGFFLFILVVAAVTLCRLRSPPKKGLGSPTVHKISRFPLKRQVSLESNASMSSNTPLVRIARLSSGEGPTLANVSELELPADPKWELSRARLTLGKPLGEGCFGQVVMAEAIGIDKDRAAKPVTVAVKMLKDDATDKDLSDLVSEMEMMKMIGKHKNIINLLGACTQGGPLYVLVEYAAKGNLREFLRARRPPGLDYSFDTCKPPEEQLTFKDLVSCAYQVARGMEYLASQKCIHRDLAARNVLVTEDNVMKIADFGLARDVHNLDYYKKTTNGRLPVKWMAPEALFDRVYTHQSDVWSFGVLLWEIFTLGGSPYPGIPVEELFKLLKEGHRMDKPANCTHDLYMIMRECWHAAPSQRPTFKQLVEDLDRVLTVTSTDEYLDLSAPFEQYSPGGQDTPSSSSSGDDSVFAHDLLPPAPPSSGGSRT
How it was run: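 After 5-10 min pre-incubation of FGFR3 with serially diluted compound in pH 7.5 HEPES/MgCl2/EGTA/DTT buffer, the reaction proceeded 1 hr at 25° C. Phosphorylated peptide was detected by FRET, and IC50 was fitted with a variable-slope sigmoid.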

[3] = molecular target: FGFR1 (Homo sapiens (Human), UniProt P11362); experiment: FGFR enzymatic assay (FRET peptide phosphorylation), FGFR1; conditions: FGFR1 enzyme 0.02 nM, ATP 210 μM
FGFR1, sequence (P11362 22-822): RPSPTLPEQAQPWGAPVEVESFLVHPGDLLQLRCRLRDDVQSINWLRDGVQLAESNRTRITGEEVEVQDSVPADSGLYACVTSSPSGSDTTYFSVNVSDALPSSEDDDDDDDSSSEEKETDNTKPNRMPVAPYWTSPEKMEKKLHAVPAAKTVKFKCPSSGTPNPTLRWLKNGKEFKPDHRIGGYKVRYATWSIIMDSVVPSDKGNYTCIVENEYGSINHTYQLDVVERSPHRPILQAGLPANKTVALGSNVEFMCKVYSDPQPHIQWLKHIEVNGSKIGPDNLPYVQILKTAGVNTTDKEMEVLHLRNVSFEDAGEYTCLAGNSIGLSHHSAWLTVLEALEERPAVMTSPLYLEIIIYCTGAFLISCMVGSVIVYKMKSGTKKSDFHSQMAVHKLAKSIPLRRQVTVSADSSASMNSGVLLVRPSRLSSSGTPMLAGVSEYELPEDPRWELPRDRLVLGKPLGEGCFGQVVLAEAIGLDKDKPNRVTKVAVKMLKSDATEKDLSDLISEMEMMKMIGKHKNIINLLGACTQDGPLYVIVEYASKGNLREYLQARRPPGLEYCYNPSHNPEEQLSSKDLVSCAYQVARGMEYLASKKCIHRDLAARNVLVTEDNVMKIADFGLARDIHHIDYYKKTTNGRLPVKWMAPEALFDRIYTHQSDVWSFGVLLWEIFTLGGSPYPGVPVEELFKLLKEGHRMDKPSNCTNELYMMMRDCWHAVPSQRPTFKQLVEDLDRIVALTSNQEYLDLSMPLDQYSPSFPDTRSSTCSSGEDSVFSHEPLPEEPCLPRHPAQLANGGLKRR
How it was run: as §1

Measured: IC50

FGFR2, sequence (P21802 22-821): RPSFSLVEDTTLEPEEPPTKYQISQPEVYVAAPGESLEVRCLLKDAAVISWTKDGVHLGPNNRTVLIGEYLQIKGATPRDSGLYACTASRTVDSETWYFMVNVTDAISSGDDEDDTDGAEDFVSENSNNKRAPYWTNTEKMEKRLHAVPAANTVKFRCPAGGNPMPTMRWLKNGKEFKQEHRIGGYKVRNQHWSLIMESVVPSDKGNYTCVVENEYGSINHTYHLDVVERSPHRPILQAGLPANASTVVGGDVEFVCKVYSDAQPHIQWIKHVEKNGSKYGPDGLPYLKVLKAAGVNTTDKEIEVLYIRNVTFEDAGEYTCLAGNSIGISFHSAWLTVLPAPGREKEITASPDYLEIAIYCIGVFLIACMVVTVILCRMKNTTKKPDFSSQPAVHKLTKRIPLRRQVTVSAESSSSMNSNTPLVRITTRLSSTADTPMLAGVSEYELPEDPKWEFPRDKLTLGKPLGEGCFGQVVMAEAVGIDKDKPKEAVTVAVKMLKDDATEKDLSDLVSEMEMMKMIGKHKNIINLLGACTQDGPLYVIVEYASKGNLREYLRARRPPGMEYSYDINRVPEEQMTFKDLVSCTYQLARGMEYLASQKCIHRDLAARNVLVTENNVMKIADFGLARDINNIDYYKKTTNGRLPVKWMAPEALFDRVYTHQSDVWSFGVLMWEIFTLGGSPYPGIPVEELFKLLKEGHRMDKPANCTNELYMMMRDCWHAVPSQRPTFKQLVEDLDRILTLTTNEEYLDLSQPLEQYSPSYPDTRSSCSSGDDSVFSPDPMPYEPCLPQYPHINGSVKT

COc1cc(OC)c(F)c(N2Cc3cnc4[nH]c(CCN5CCOCC5)cc4c3C(C)(C)C2=O)c1F [Example 158, 7-(2,6-difluoro-3,5-dimethoxyphenyl)-9,9-dimethyl-2-(2-morpholin-4-ylethyl)-3,6,7,9-tetrahydro-8H-pyrrolo[2,3-c]-2,7-naphthyridin-8-one]
< 100 nM: all assays above

CCN1CCN(CCc2cc3c4c(cnc3[nH]2)CN(c2c(F)c(OC)cc(OC)c2F)C(=O)C4(C)C)CC1 [Example 159, 7-(2,6-difluoro-3,5-dimethoxyphenyl)-2-[2-(4-ethylpiperazin-1-yl)ethyl]-9,9-dimethyl-3,6,7,9-tetrahydro-8H-pyrrolo[2,3-c]-2,7-naphthyridin-8-one]
< 100 nM: all assays above

COc1cc(OC)c(F)c(N2Cc3cnc4[nH]c(CCN5CCN(C)CC5)cc4c3C(C)(C)C2=O)c1F [Example 160, 7-(2,6-difluoro-3,5-dimethoxyphenyl)-9,9-dimethyl-2-[2-(4-methylpiperazin-1-yl)ethyl]-3,6,7,9-tetrahydro-8H-pyrrolo[2,3-c]-2,7-naphthyridin-8-one]
< 100 nM: all assays above

COc1cc(OC)c(F)c(N2Cc3cnc4[nH]ncc4c3N(Cc3cocn3)C2=O)c1F [Example 161, 3-(2,6-Difluoro-3,5-dimethoxyphenyl)-1-(1,3-oxazol-4-ylmethyl)-1,3,4,7-tetrahydro-2H-pyrazolo[4′,3′:5,6]pyrido[4,3-d]pyrimidin-2-one]
< 100 nM: all assays above

COc1cc(OC)c(F)c(N2Cc3cnc4[nH]ncc4c3N(Cc3ccon3)C2=O)c1F [Example 162, 3-(2,6-Difluoro-3,5-dimethoxyphenyl)-1-(isoxazol-3-ylmethyl)-1,3,4,7-tetrahydro-2H-pyrazolo[4′,3′:5,6]pyrido[4,3-d]pyrimidin-2-one]
< 100 nM: all assays above

COc1cc(OC)c(F)c(N2Cc3cnc4[nH]ncc4c3N(Cc3cscn3)C2=O)c1F [Example 163, 3-(2,6-Difluoro-3,5-dimethoxyphenyl)-1-(1,3-thiazol-4-ylmethyl)-1,3,4,7-tetrahydro-2H-pyrazolo[4′,3′:5,6]pyrido[4,3-d]pyrimidin-2-one]
< 100 nM: all assays above

COc1cc(OC)c(F)c(N2Cc3cnc4[nH]ncc4c3N(c3ccccc3OC(F)F)C2=O)c1F [Example 164, 3-(2,6-Difluoro-3,5-dimethoxyphenyl)-1-[2-(difluoromethoxy)phenyl]-1,3,4,7-tetrahydro-2H-pyrazolo[4′,3′:5,6]pyrido[4,3-d]pyrimidin-2-one]
< 100 nM: all assays above

COc1cc(OC)c(F)c(N2Cc3cnc4[nH]ncc4c3N(CCn3cccn3)C2=O)c1F [Example 165, 3-(2,6-Difluoro-3,5-dimethoxyphenyl)-1-[2-(1H-pyrazol-1-yl)ethyl]-1,3,4,7-tetrahydro-2H-pyrazolo[4′,3′:5,6]pyrido[4,3-d]pyrimidin-2-one]
< 100 nM: all assays above

COc1cc(OC)c(F)c(N2Cc3cnc4[nH]ncc4c3N(C[C@H]3CCCO3)C2=O)c1F [Example 166, 3-(2,6-Difluoro-3,5-dimethoxyphenyl)-1-[(2R)-tetrahydrofuran-2-ylmethyl]-1,3,4,7-tetrahydro-2H-pyrazolo[4′,3′:5,6]pyrido[4,3-d]pyrimidin-2-one]
< 100 nM: all assays above

COc1cc(OC)c(F)c(N2Cc3cnc4[nH]ncc4c3N(C[C@@H]3CCCO3)C2=O)c1F [Example 167, 3-(2,6-Difluoro-3,5-dimethoxyphenyl)-1-[(2S)-tetrahydrofuran-2-ylmethyl]-1,3,4,7-tetrahydro-2H-pyrazolo[4′,3′:5,6]pyrido[4,3-d]pyrimidin-2-one]
< 100 nM: all assays above

COc1cc(OC)c(F)c(N2Cc3cnc4[nH]ncc4c3N(CCc3cnccn3)C2=O)c1F [Example 168, 3-(2,6-Difluoro-3,5-dimethoxyphenyl)-1-(2-pyrazin-2-ylethyl)-1,3,4,7-tetrahydro-2H-pyrazolo[4′,3′:5,6]pyrido[4,3-d]pyrimidin-2-one]
< 100 nM: all assays above

COc1cc(OC)c(F)c(N2Cc3cnc4[nH]ncc4c3N(CCc3ccccn3)C2=O)c1F [Example 169, 3-(2,6-Difluoro-3,5-dimethoxyphenyl)-1-(2-pyridin-2-ylethyl)-1,3,4,7-tetrahydro-2H-pyrazolo[4′,3′:5,6]pyrido[4,3-d]pyrimidin-2-one]
< 100 nM: all assays above

COc1cc(OC)c(F)c(N2Cc3cnc4[nH]ncc4c3N(CCc3cccnc3)C2=O)c1F [Example 170, 3-(2,6-Difluoro-3,5-dimethoxyphenyl)-1-(2-pyridin-3-ylethyl)-1,3,4,7-tetrahydro-2H-pyrazolo[4′,3′:5,6]pyrido[4,3-d]pyrimidin-2-one]
< 100 nM: all assays above

COc1cc(OC)c(F)c(N2Cc3cnc4[nH]ncc4c3N(CCc3ccncc3)C2=O)c1F [Example 171, 3-(2,6-Difluoro-3,5-dimethoxyphenyl)-1-(2-pyridin-4-ylethyl)-1,3,4,7-tetrahydro-2H-pyrazolo[4′,3′:5,6]pyrido[4,3-d]pyrimidin-2-one]
< 100 nM: all assays above

CCn1cc(N2C(=O)N(c3c(F)c(OC)cc(OC)c3F)Cc3cnc4[nH]ncc4c32)cn1 [Example 172, 3-(2,6-difluoro-3,5-dimethoxyphenyl)-1-(1-ethyl-1H-pyrazol-4-yl)-1,3,4,7-tetrahydro-2H-pyrazolo[4′,3′:5,6]pyrido[4,3-d]pyrimidin-2-one]
< 100 nM: all assays above

COc1cc(OC)c(F)c(N2Cc3cnc4[nH]ncc4c3N(c3cnn(CC(C)(C)O)c3)C2=O)c1F [Example 173, 3-(2,6-difluoro-3,5-dimethoxyphenyl)-1-[1-(2-hydroxy-2-methylpropyl)-1H-pyrazol-4-yl]-1,3,4,7-tetrahydro-2H-pyrazolo[4′,3′:5,6]pyrido[4,3-d]pyrimidin-2-one]
< 100 nM: all assays above

COCCn1cc(N2C(=O)N(c3c(F)c(OC)cc(OC)c3F)Cc3cnc4[nH]ncc4c32)cn1 [Example 174, 3-(2,6-difluoro-3,5-dimethoxyphenyl)-1-[1-(2-methoxyethyl)-1H-pyrazol-4-yl]-1,3,4,7-tetrahydro-2H-pyrazolo[4′,3′:5,6]pyrido[4,3-d]pyrimidin-2-one]
< 100 nM: all assays above

— patent US9611267B2, “Substituted tricyclic compounds as FGFR inhibitors” (Incyte Corporation, priority 2012, dated 2017)
